IC50 data for 31 molecules are collected here from patent publication US8134007B2, “Pyridine derivatives” (Pfizer Inc., priority 2007, dated 2012).

Like-named read-outs stand apart in the source and are kept apart here.

Type in all cases: cell-based
The target of one data set is T1, Human Nav1.8 (Homo sapiens, UniProt Q9Y5Y9).
T1 construct: expressed in transfected cells; host or cells: HEK293
As to the kind of experiment: VIPR Assay for Nav1.8 Compounds (FRET membrane potential, deltamethrin opener). To be noted: VIPR FRET membrane potential assay, deltamethrin opener; average of replicates; read-out: Nav1.8 IC50.

In data set [1] the test system is tetrodotoxin-sensitive voltage-gated sodium channels including NaV1.2, NaV1.3 and NaV1.7. As to the kind of experiment: TTX-S Assay (VIPR, SHSY-5Y cell line, veratridine opener).
Another data set addresses T2, Human Nav1.5 (Homo sapiens, UniProt Q14524).
T2 construct: expressed in transfected cells; host or cells: HEK293
As to the kind of experiment: Nav1.5 Assay (VIPR, HEK293 cells). To be noted: HEK293 cells expressing Human Nav1.5; average of replicates; read-out: Nav1.5 IC50. The method, then:
The Nav1.5 assay is performed in HEK293 cells expressing Human Nav1.5 in the same way as the Nav1.8 assay.
Where replicate experiments were conducted resulting in multiple sets of data for a test compound, the data presented represent the average value from all replicate experiments.

The mark [2] stands for this setting: read-out: TTX-S IC50, veratridine 50 μM opener, average of replicates.

T2 sequence (Q14524 whole entry): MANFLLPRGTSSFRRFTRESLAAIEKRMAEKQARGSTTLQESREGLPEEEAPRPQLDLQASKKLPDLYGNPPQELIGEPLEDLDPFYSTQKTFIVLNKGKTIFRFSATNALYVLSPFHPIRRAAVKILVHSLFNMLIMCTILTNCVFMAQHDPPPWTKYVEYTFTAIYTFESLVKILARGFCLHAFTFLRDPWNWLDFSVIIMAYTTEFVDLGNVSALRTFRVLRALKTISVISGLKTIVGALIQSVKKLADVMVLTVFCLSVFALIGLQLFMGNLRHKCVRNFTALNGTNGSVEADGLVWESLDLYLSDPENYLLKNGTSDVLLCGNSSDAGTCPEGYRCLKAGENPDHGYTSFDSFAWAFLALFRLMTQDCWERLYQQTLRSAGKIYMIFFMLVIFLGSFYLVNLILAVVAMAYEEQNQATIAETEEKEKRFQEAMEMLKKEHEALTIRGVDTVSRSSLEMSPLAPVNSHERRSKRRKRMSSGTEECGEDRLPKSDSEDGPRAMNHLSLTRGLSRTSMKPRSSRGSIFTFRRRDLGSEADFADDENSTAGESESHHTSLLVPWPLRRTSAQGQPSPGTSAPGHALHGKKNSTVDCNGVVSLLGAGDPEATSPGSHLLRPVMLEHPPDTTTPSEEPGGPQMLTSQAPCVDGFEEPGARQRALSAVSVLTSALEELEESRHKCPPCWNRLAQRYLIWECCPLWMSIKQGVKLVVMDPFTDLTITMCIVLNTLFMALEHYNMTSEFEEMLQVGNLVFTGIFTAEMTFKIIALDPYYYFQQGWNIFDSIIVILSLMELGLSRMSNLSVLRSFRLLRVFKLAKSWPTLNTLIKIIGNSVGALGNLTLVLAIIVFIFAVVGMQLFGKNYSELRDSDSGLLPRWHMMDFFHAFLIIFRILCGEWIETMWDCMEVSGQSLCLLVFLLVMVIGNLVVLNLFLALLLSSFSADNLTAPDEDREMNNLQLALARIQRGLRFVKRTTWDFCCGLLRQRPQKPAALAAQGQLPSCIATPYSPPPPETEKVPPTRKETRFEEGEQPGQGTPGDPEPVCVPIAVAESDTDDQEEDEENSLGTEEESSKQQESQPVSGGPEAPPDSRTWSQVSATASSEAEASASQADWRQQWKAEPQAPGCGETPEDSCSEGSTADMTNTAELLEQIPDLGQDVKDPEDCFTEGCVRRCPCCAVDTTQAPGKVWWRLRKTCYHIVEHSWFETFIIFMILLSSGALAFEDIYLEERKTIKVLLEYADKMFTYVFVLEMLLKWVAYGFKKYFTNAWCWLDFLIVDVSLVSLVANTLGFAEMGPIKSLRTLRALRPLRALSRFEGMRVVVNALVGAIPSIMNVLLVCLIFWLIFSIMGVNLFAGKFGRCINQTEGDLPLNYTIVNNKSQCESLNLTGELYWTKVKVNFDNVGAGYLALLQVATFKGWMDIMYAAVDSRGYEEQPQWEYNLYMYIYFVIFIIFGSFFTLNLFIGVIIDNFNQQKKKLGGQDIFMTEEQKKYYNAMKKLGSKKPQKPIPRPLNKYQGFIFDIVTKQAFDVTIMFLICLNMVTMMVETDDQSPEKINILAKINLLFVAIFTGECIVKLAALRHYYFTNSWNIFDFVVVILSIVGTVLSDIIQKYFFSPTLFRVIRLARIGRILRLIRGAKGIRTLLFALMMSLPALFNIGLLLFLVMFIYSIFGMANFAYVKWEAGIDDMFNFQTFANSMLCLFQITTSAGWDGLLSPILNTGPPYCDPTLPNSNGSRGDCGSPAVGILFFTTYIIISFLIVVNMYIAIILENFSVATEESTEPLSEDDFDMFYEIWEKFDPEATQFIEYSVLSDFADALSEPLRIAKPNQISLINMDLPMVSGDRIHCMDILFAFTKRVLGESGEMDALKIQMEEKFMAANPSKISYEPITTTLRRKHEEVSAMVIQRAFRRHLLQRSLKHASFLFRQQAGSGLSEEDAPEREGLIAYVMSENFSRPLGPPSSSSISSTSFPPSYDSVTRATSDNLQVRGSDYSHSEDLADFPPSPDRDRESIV
T1 sequence (Q9Y5Y9 whole entry): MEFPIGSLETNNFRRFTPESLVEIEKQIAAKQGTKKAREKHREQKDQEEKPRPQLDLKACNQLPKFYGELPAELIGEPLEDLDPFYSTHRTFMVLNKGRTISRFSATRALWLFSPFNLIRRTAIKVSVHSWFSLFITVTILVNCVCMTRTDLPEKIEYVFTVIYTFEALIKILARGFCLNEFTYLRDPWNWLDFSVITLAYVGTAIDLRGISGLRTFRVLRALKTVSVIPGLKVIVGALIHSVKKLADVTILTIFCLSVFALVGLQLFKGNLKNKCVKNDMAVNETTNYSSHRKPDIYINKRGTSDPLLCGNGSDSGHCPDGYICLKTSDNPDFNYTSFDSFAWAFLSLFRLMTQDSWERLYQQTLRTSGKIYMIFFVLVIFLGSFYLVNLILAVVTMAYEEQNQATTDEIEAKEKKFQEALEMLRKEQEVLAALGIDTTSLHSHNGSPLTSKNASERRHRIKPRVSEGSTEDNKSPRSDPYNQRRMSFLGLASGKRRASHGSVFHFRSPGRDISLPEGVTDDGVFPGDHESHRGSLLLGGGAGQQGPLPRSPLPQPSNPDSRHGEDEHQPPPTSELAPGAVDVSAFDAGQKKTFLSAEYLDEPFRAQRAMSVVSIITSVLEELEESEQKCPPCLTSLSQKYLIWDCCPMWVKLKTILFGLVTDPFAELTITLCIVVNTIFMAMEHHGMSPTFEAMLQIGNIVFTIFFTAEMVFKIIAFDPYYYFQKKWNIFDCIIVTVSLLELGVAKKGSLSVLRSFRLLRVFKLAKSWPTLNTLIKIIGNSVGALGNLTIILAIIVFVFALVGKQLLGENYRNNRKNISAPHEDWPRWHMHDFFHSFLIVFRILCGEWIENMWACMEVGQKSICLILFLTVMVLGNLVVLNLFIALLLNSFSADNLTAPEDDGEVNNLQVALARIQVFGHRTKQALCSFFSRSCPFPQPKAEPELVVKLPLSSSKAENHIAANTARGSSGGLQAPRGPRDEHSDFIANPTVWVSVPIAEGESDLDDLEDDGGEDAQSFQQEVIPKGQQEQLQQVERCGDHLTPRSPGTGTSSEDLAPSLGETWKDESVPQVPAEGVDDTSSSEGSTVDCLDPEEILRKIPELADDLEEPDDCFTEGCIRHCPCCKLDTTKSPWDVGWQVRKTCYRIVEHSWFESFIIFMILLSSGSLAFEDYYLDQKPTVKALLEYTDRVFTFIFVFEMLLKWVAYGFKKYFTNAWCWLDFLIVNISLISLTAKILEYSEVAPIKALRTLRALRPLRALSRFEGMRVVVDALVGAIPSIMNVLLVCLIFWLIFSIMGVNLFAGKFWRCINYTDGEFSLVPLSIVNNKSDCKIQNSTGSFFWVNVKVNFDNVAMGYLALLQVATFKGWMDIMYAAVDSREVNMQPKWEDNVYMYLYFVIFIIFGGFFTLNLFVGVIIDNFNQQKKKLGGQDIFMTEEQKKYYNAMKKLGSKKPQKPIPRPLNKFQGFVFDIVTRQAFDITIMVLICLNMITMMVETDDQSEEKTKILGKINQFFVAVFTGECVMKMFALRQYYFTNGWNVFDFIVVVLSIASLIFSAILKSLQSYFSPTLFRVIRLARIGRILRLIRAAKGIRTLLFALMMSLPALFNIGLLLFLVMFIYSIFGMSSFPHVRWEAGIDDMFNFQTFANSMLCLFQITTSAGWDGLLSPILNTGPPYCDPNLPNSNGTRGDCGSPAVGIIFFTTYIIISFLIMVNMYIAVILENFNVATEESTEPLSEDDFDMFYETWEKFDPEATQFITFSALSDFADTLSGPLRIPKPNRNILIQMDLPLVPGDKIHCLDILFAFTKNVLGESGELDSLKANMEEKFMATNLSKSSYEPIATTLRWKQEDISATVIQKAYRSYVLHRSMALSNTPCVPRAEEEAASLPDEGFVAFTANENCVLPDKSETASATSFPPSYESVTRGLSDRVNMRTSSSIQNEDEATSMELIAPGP

Consider `Nc1nc(NC(=O)c2cnon2)ccc1-c1cc(Cl)ccc1Cl` [Example 71, N-[6-Amino-5-(2,5-dichlorophenyl)pyridin-2-yl]-1,2,5-oxadiazole-3-carboxamide], for which the IC50 (at Human Nav1.8; in data set [1] (setting [2]); at Human Nav1.5) was > 32 µM throughout.
Turning to `Cn1nccc1C(=O)Nc1ccc(-c2ccccc2OC(F)(F)F)c(N)n1` [Example 11, N-{6-Amino-5-[2-(trifluoromethoxy)pheny]pyridin-2-yl}-1-methyl-1H-pyrazole-5-carboxamide], the IC50 came out at 2.4 µM at Human Nav1.8; 11 µM in data set [1] (veratridine 50 μM opener, average of replicates, read-out: TTX-S IC50); 18 µM at Human Nav1.5.
`COc1ccc(Cl)c(-c2ccc(NC(=O)c3ccnn3C)nc2N)c1` [Example 5, N-[6-Amino-5-(2-chloro-5-methoxyphenyl)pyridin-2-yl]-1-methyl-1H-pyrazole-5-carboxamide]: the values for the IC50 (on Human Nav1.8; in data set [1] (setting [2]); on Human Nav1.5) were 0.9 µM, > 32 µM and > 32 µM, respectively.
In the case of `CCn1nccc1C(=O)Nc1ccc(-c2cc(OC)ccc2Cl)c(N)n1` [Example 52, N-[6-Amino-5-(2-chloro-5-methoxyphenyl)pyridin-2-yl]-1-ethyl-1H-pyrazole-5-carboxamide], the IC50 was 0.95 µM at Human Nav1.8, 6.4 µM in data set [1] (setting [2]) and 16 µM on Human Nav1.5.
Taken in the same sequence, the figures for `Cn1nccc1C(=O)Nc1ccc(-c2ccc(OC(F)(F)F)c(F)c2)c(N)n1` [Example 121] were 10 µM, 3.2 µM and 8.6 µM.
Regarding `N#Cc1ccccc1C(=O)Nc1ccc(-c2ccccc2OC(F)(F)F)c(N)n1` [Example 107, N-{6-Amino-5-[2-(trifluoromethoxy)phenyl]pyridin-2-yl}-2-cyanobenzamide], the IC50 on Human Nav1.8 worked out at 2.5 µM; in data set [1] (setting [2]), 3.1 µM; at Human Nav1.5 it was 2.5 µM.
As for `Cc1nocc1C(=O)Nc1ccc(-c2ccccc2F)c(N)n1` [Example 33, N-[6-Amino-5-(2-fluorophenyl)pyridin-2-yl]-3-methylisoxazole-4-carboxamide], the IC50 on Human Nav1.8 was 6.5 µM; in data set [1] (setting [2]), 23 µM; at Human Nav1.5, > 32 µM.
Taken in the same sequence, the figures for `CCn1nccc1C(=O)Nc1ccc(-c2cc(F)ccc2Cl)c(N)n1` [Example 54, N-[6-Amino-5-(2-chloro-5-fluorophenyl)pyridin-2-yl]-1-ethyl-1H-pyrazole-5-carboxamide] were 1.2 µM, 18 µM and 20 µM.
For `Cn1nccc1C(=O)Nc1ccc(-c2cc(OC(F)(F)F)ccc2F)c(N)n1` [Example 17, N-{6-Amino-5-[2-fluoro-5-(trifluoromethoxy)phenyl]pyridin-2-yl}-1-methyl-1H-pyrazole-5-carboxamide] the same measures were 3.4 µM, 7.7 µM and 19 µM.
As for `Nc1nc(NC(=O)c2ccccc2)ccc1-c1ccccc1OC(F)(F)F` [Example 99], the IC50 was 3.2 µM on Human Nav1.8, 6.6 µM in data set [1] (setting [2]) and 15 µM on Human Nav1.5.
Consider `COCc1cc(C(=O)Nc2ccc(-c3ccccc3Cl)c(N)n2)on1` [Example 95], for which the IC50 is > 32 µM at Human Nav1.8, 29 µM in data set [1] (setting [2]) and > 32 µM on Human Nav1.5.
Regarding `Cc1oncc1C(=O)Nc1ccc(-c2ccccc2OC(F)(F)F)c(N)n1` [Example 23, N-{6-Amino-5-[2-(trifluoromethoxy)phenyl]pyridin-2-yl}-5-methylisoxazole-4-carboxamide], the IC50 on Human Nav1.8 is 1.6 µM; in data set [1] (setting [2]), 9.4 µM; at Human Nav1.5, 17 µM.
For `Cc1nocc1C(=O)Nc1ccc(-c2cc(OC(F)(F)F)ccc2F)c(N)n1` [Example 36, N-{6-Amino-5-[2-fluoro-5-(trifluoromethoxy)phenyl]pyridin-2-yl}-3-methylisoxazole-4-carboxamide] the same measures were 1.3 µM, 2.2 µM and 6.4 µM.
Turning to `CCn1nccc1C(=O)Nc1ccc(-c2ccccc2OC(F)(F)F)c(N)n1` [Example 59, N-{6-Amino-5-[2-(trifluoromethoxy)phenyl]pyridin-2-yl}-1-ethyl-1H-pyrazole-5-carboxamide], the IC50 was 3.6 µM at Human Nav1.8, 17 µM in data set [1] (setting [2]) and 31 µM at Human Nav1.5.
Taken in the same sequence, the figures for `COc1ccc(Cl)c(-c2ccc(NC(=O)c3conc3C(F)(F)F)nc2N)c1` [Example 113] were 3.8 µM, 8.7 µM and 14 µM.
As for `Cc1nocc1C(=O)Nc1ccc(-c2cc(Cl)cc(Cl)c2)c(N)n1` [Example 31, N-[6-Amino-5-(3,5-dichlorophenyl)pyridin-2-yl]-3-methylisoxazole-4-carboxamide], the IC50 on Human Nav1.8 turned out to be 3.9 µM; in data set [1] (setting [2]), 20 µM; at Human Nav1.5 it was 30 µM.
For `Cn1nccc1C(=O)Nc1ccc(-c2ccc(F)cc2Cl)c(N)n1` [Example 10, N-[6-Amino-5-(2-chloro-4-fluorophenyl)pyridin-2-yl]-1-methyl-1H-pyrazole-5-carboxamide], the IC50 on Human Nav1.8 is 25 µM; in data set [1] (setting [2]) it was > 32 µM; on Human Nav1.5, > 32 µM.
On to `CCn1nccc1C(=O)Nc1ccc(-c2cc(OC)cc(Cl)c2Cl)c(N)n1` [Example 61, N-[6-Amino-5-(2,3-dichloro-5-methoxyphenyl)pyridin-2-yl]-1-ethyl-1H-pyrazole-5-carboxamide], for which the IC50 was determined as 1.3 µM at Human Nav1.8, 9.7 µM in data set [1] (setting [2]) and 9.7 µM at Human Nav1.5.
Turning to `COCc1nocc1C(=O)Nc1ccc(-c2ccccc2OC(F)(F)F)c(N)n1` [Example 88, N-{6-Amino-5-[2-(trifluoromethoxy)phenyl]pyridin-2-yl}-3-(methoxymethyl)isoxazole-4-carboxamide], the IC50 on Human Nav1.8 stood at 1.5 µM; in data set [1] (setting [2]), 7.3 µM; at Human Nav1.5 it was 9.8 µM.
`Cn1nncc1C(=O)Nc1ccc(-c2cc(F)ccc2Cl)c(N)n1` [Example 86, N-[6-Amino-5-(2-chloro-5-fluorophenyl)pyridin-2-yl]-1-methyl-1H-1,2,3-triazole-5-carboxamide]: the results for the IC50 (on Human Nav1.8; in data set [1] (setting [2]); on Human Nav1.5) were 5.3 µM, 19 µM and 7.5 µM, respectively.
For `Cc1nocc1C(=O)Nc1ccc(-c2cc(Cl)cc3c2OCCO3)c(N)n1` [Example 30, N-[6-Amino-5-(7-chloro-2,3-dihydro-1,4-benzodioxin-5-yl)pyridin-2-yl]-3-methylisoxazole-4-carboxamide] the same measures were 1.3 µM, 28 µM and 16 µM.
For `COc1ccc(Cl)c(-c2ccc(NC(=O)c3cnnn3C)nc2N)c1` [Example 83, N-[6-Amino-5-(2-chloro-5-methoxyphenyl)pyridin-2-yl]-1-methyl-1H-1,2,3-triazole-5-carboxamide] the same measures were 3.3 µM, 12 µM and 4.1 µM.
Regarding `COCc1cc(C(=O)Nc2ccc(-c3cc(F)ccc3Cl)c(N)n2)on1` [Example 96], the IC50 was 5.9 µM at Human Nav1.8, 12 µM in data set [1] (setting [2]) and 7.1 µM on Human Nav1.5.
For `CCn1nccc1C(=O)Nc1ccc(-c2cc(F)ccc2C(F)(F)F)c(N)n1` [Example 57, N-{6-Amino-5-[5-fluoro-2-(trifluoromethyl)phenyl]pyridin-2-yl}-1-ethyl-1H-pyrazole-5-carboxamide] the same measures were 3.7 µM, 21 µM and > 32 µM.
For `Cc1nocc1C(=O)Nc1ccc(-c2ccccc2OC(F)F)c(N)n1` [Example 38, N-{6-Amino-5-[2-(difluoromethoxy)phenyl]pyridin-2-yl}-3-methylisoxazole-4-carboxamide] the same measures were 2.6 µM, 26 µM and 25 µM.
Taken in the same sequence, the figures for `COc1cc(Cl)c(Cl)c(-c2ccc(NC(=O)c3ccnn3C)nc2N)c1` [Example 7, N-[6-Amino-5-(2,3-dichloro-5-methoxyphenyl)pyridin-2-yl]-1-methyl-1H-pyrazole-5-carboxamide] were 0.63 µM, 9.2 µM and 6.3 µM.
Consider `Cc1nocc1C(=O)Nc1ccc(-c2cc(OC(F)(F)F)ccc2Cl)c(N)n1` [Example 37, N-{6-Amino-5-[2-chloro-5-(trifluoromethoxy)phenyl]pyridin-2-yl}-3-methylisoxazole-4-carboxamide], for which the half-maximal inhibitory concentration (IC50) on Human Nav1.8 worked out at 0.44 µM; in data set [1] (setting [2]), 1.2 µM; on Human Nav1.5 it was 3.6 µM.
Taken in the same sequence, the figures for `COc1ccc(Cl)c(-c2ccc(NC(=O)c3ccon3)nc2N)c1` [Example 73, N-[6-Amino-5-(2-chloro-5-methoxyphenyl)pyridin-2-yl]isoxazole-3-carboxamide] were 4.7 µM, 18 µM and > 32 µM.
On to `Cc1nocc1C(=O)Nc1ccc(-c2cc(Cl)ccc2OC(F)(F)F)c(N)n1` [Example 32, N-{6-Amino-5-[5-chloro-2-(trifluoromethoxy)phenyl]pyridin-2-yl}-3-methylisoxazole-4-carboxamide], for which the IC50 on Human Nav1.8 is 0.64 µM; in data set [1] (setting [2]), 2.6 µM; on Human Nav1.5 it was 7.8 µM.
Taken in the same sequence, the figures for `Cc1nocc1C(=O)Nc1ccc(-c2cc(F)ccc2O)c(N)n1` [Example 128] were 15 µM, > 32 µM and > 32 µM.
Take `Cn1nccc1C(=O)Nc1ccc(-c2cccc(Cl)c2Cl)c(N)n1` [Example 9, N-[6-Amino-5-(2,3-dichlorophenyl)pyridin-2-yl]-1-methyl-1H-pyrazole-5-carboxamide]: the IC50 at Human Nav1.8 was 4.2 µM; in data set [1] (setting [2]), > 32 µM; on Human Nav1.5 it was 27 µM.
